Laboratory results as given in US20250043290A1, “RNA SEQUENCES THAT INDUCE FLUORESCENCE OF SMALL MOLECULE FLUOROPHORES, MOLECULAR COMPLEXES, SENSORS, AND METHODS OF USE THEREOF” (CORNELL UNIVERSITY, priority 2021, published 2025).
Entries after “also recorded” stand apart in the source; their conditions may differ.

What was measured:
HEK293T cells [1] = test: Cytotoxicity of DFAME, MTT assay after illumination; format: cell-based; details: 10 μM, illuminated for 10 minutes
Description: FIG. 31A is a graph showing the results of an experiment evaluating fluorescence of DFAME when mixed with cells. An important criteria for a fluorogenic dye is that it must have very low fluorescence when mixed with cells. To test this, 10 μM DFAME was incubated with cultured HEK293T cells and the fluorescence intensity of the DFAME-incubated cells was measured. […] Although the background fluorescence in cells induced by DFAME (n=48 cells) was higher than DFHO (n=47 cells) or DFHBI-1T (n=44 cells), it was reasoned that DFAME could be used if enough fluorogenic aptamer is used in cells. Data were collected from three independent cell cultures. Values are means±s.d. FIG. 31B is a graph showing the cytotoxicity of DFAME. To apply a fluorogenic dye in cells, it is critical that this dye has minimal cytotoxicity. To test the cytotoxicity of DFAME, HEK293T cells were first incubated with 10 μM DFAME, then illuminated for 10 minutes using a Nikon Intensilight C-HGFIE 130 W mercury lamp with the TRITC filter set. Control cells were illuminated under identical conditions either with 0.2% DMSO (illuminated with the TRITC filter set) or 10 μM malachite green (illuminated with the Cy5 filter set). […] MTT absorbance readings were performed at 550 nm with 650 nm absorbance used for background subtraction. […]

[2] = Photophysical properties of DFAME, DFHO and RNA complexes (Beetroot study); format: physicochemical
Text: dsDNA encoding the top-performing RNA sequences from the brightest bacterial colonies was PCR amplified from the purified plasmids. PCR products were subjected to gel electrophoresis in 2% TBE gel, and the PCR product band corresponding to the correct size was excised from gel and further purified with PCR purification columns (Qiagen) and in vitro transcribed using an AmpliScribe T7-Flash Transcription Kit (Epicenter). The resulting RNA was then purified using Zymo RNA concentrator columns and quantified by absorbance using a Thermo Scientific NanoDrop 2000 spectrophotometer. For absorption, excitation and emission spectra measurements, “excess RNA” conditions and limiting amount of fluorophore was used to ensure that no free fluorophore contributes to the absorbance or fluorescence signal. The RNA concentration used for fluorescence and absorbance measurements was 20 μM and 50 μM, respectively, while the dye concentration was 2 μM and 5 μM, respectively. All in vitro RNA properties were measured in 40 mM HEPES pH 7.4, 100 mM KCl, 5 mM MgCl2 buffer, unless specified.
Extinction coefficient was calculated based on Beer's law. Briefly, absorbance spectrum of 5 μM DFAME, Beetroot-DFAME, or Corn-DFAME was measured using a Thermo Scientific NanoDrop 2000 spectrophotometer with cuvette capability. Extinction coefficient was calculated by dividing peak absorbance value by the concentration of fluorophore alone, or RNA-fluorophore complex.
Quantum yield was determined by comparing the integral of the emission spectra for DFAME or RNA-DFAME complex with the corresponding integral obtained from Rhodamine B solution. These integral values were plotted against the absorbance values corresponding to the excitation wavelength. The slopes from the above plots were calculated for determining quantum yield. Quantum yield was calculated by multiplying the quantum yield of Rhodamine B by the slope of DFAME or RNA-DFAME complex, then divided by the slope of Rhodamine B.

Beetroot = Beetroot homodimer dissociation, serial dilution and non-denaturing gel electrophoresis; format: binding; details: dilution 1000 nM to 1.4 nM, 20° C., 12 hours; read-out: Homodimerization dissociation constant (Kd)
Description: FIGS. 33A-33C provide the dissociation constant (Kd) of Beetroot homodimer. […] These RNAs were incubated at 20° C. for 12 hours and then analyzed using non-denaturing gel electrophoresis (FIG. 33A). The fraction of Beetroot monomer (FIG. 33B) and Beetroot dimer (FIG. 33C) were quantified after SYBR Gold staining. […] The RNA band marked with an asterisk (*) reflects an RNA side product from in vitro transcription. The same side product band was also observed in FIGS. 27B-27C. Quantification shown in […] is based on two independent experiments. FIG. 33D are images showing genetic encoding of simple macromolecular RNA assemblies in cells using Corn when circular RNAs containing 3 and 5 copies of Corn were expressed in HEK293T cells. Clusters of these Corn-containing RNAs were observed as large intracellular puncta. Data shown here is a representative image from three independent cell cultures. Scale bar, 20 μm. FIG. 33E is a graph showing the quantification of the fraction of Corn and Beetroot in the cell that accumulates in puncta. As the valency of Corn increases from three to five, the fraction of Corn participating in the RNA assembly increases from 28±12% to 57±14%. Compared to 5× Corn, a fraction of 27±11% of 5× Beetroot are participating in the Beetroot RNA assembly. Values are means±s.d. FIG. 33F is a graph showing quantification of RNA assembly size in cells. […]

[3] = Fluorescence activation of DFAME by aptamers in vitro; format: biochemical; details: in vitro
Description: (§1) To test whether Beetroot can activate DFHO, the fluorescence emission spectrum of the Beetroot-DFHO complex was measured. In brief, 20 μM Beetroot and 2 μM DFHO were mixed, and the fluorescence emission of the Beetroot-DFHO complex was measured. […] To test whether Beetroot can activate DFHBI-1T, the fluorescence emission spectrum of the Beetroot-DFHBI-1T complex was measured using the same protocol described in FIG. 32A. […] To test whether Beetroot can activate BI, the fluorescence emission spectrum of the Beetroot-BI complex was measured using the same protocol described in FIG. 32A. […] To test whether Corn can activate DFAME, the fluorescence emission spectrum of the Corn-DFAME complex was measured using the same protocol described in FIG. 32A.
The eluted RNAs were then ethanol precipitated, reverse transcribed, PCR amplified and in vitro transcribed to yield the pool for the next SELEX round. The presence of fluorescent RNA species in each pool was assessed by mixing 20 μM RNA and 10 μM DFAME and measuring fluorescence emission of this solution on a fluorometer in comparison with the fluorophore alone. At this point, RNAs were cloned into bacterial expression plasmids for FACS-based screening.
dsDNA encoding the top-performing RNA sequences from the brightest bacterial colonies was PCR amplified from the purified plasmids. […] The resulting RNA was then purified using Zymo RNA concentrator columns and quantified by absorbance using a Thermo Scientific NanoDrop 2000 spectrophotometer. For absorption, excitation and emission spectra measurements, “excess RNA” conditions and limiting amount of fluorophore was used to ensure that no free fluorophore contributes to the absorbance or fluorescence signal. The RNA concentration used for fluorescence and absorbance measurements was 20 μM and 50 μM, respectively, while the dye concentration was 2 μM and 5 μM, respectively. All in vitro RNA properties were measured in 40 mM HEPES pH 7.4, 100 mM KCl, 5 mM MgCl2 buffer, unless specified.

[4] = Fluorescence emission of Beetroot with DFHBI-1T; format: biochemical; details: 20 μM RNA, 2 μM dye
Description: as §1

Corn = test: Beetroot-Corn heterodimer formation, nondenaturing electrophoretic analysis; format: binding; details: equimolar mixture, heat-denatured and cooled
Description: FIG. 27B is an image showing that Beetroot is a dimer in vitro. To test this, nondenaturing electrophoretic analysis was performed on a wild-type Beetroot and a mutant Beetroot with mutations in the G-quadruplex that are expected to disrupt any putative dimer formation. […] The RNA band marked with an asterisk (*) reflects an RNA side product from in vitro transcription. […] To test whether Beetroot and Corn can form heterodimers in vitro, nondenaturing electrophoretic analysis was performed on Beetroot, Corn, and a Beetroot-Corn equimolar mixture to measure heterodimer formation. If Beetroot (107 nt) and Corn (250 nt) are orthogonal dimers, two distinct molecular species would be expected: dimeric Beetroot and dimeric Corn. On the other hand, if Beetroot-Corn heterodimers are formed, a third molecular species, reflecting a Beetroot-Corn heterodimer, with a molecular weight in between dimeric Beetroot and dimeric Corn, would be expected. […] In-gel staining with DFAME and DFHO also confirmed the identity of the putative dimeric species. The RNA band marked with an asterisk (*) reflects an RNA side product from in vitro transcription. A final concentration of 350 nM RNA was used in each lane. […]

[5] = Fluorescence emission of Beetroot with BI; format: biochemical; details: 20 μM RNA, 2 μM dye
Description: as §1

HEK293T cells [6] = test: Imaging Beetroot in HEK293T cells; format: cell-based; details: Tornado circular RNA, tRNA or F30-tRNA scaffold, 10 μM DFAME, 5 mM MgCl2
Description: FIGS. 35A-35B show imaging Beetroot in HEK293T cells. To test whether Beetroot could be imaged in HEK293T cells, Beetroot was expressed in Tornado. […] FIG. 35B are images showing HEK293T cells which were transiently transfected with Beetroot-expressing plasmids. About 36 hours after transfection, these transfected HEK293T cells were incubated with 10 μM DFAME and 5 mM MgCl2 for 1 hour prior to imaging. Detectable levels of red fluorescence were not observed in HEK293T cells. Data shown here is a representative image from three independent cell cultures. Scale bar, […].
Prior to imaging experiments, HEK293T cells were incubated with 1 μl of Hoechst 33342 (Thermo Fisher Scientific, H3570) per 2 ml of imaging media (phenol red-free Dulbeco's modified Eagle's medium (Thermo Fisher Scientific 31053-028) supplemented with 10% fetal bovine serum (Corning 35-010-CV), 100 U ml-1 of penicillin and […] of streptomycin, 1× GlutaMAX (Thermo Fisher Scientific, 35050-061) and 1 mM sodium pyruvate (Thermo Fisher Scientific, 11360-070)). For imaging experiments of RNA-fluorophore complex, HEK293T cells were incubated with imaging media supplemented with a final concentration of 10 μM fluorophore (DFHO or DFAME) and 5 mM MgCl2 for one hour prior to imaging.

[7] = Fluorescence emission of Beetroot with DFHO; format: biochemical; details: 20 μM Beetroot, 2 μM DFHO
Description: as §1

Molecule	Cytotoxicity (HEK293T cells [1])	Emission maximum [2] [nm]	Excitation maximum [2] [nm]	Fluorescence in solution ([2]; 10 μM)	Extinction coefficient ([2]; DFAME alone, at 514 nm, pH 7.4 buffer)	Brightness (extinction coefficient × quantum yield) ([2]; relative to Corn-DFHO)	Fluorescence quantum yield ([2]; versus Rhodamine B)	Kd (Beetroot) [nM]	Fold fluorescence enhancement of DFAME [3]	Binding and activation of DFHBI-1T fluorescence [4]	Heterodimer formation with Corn (Corn)	Binding and activation of BI fluorescence [5]	Red fluorescence in cells (HEK293T cells [6])	Binding and activation of DFHO fluorescence [7]
COC(=O)/C=C/C1=NC(=C\c2cc(F)c(O)c(F)c2)/C(=O)N1C [DFAME, methyl 3-((Z)-4-(3,5-difluoro-4-hydroxybenzylidene)-1-methyl-5-oxo-4,5-dihydro-1H-imidazol-2-yl)acrylate]	low cytotoxicity	641	508	very low red fluorescence	32,500 M^−1cm^−1	1.3	0.0029							
Beetroot: red-fluorescent dimeric fluorogenic RNA aptamer binding DFAME, SEQ ID NO: 96 (GUUAGGCAGAGGUGGGUGGUGUGGAGGAGUAUCUGUC; RNA, backbone not given here)								< 1	approximately 40 fold	cannot bind and activate	no mixed Corn-Beetroot heterodimers	cannot bind and activate	not observed	weakly binds and activates; also recorded: only weakly bind and activate
